Results taken from PubChem BioAssay AID2305 (GlaxoSmithKline (GSK), 2010).

tested on: P. falciparum 3D7 growth, pLDH absorbance; assay: P. falciparum 3D7 growth inhibition, dose response, strain 3D7 (AID 2305)

SMILES	IC50 [nM]
Cc1cccc2[nH]c(-c3cccc(-c4ccc(NC(=O)C5CCCO5)cc4)c3)nc12 (centres undefined)	900
CC(C)COc1ccc(Cl)cc1Cc1ccc(-c2nc3c(F)c(F)ccc3[nH]2)o1	940
O=c1c2ccc(F)cc2sn1-c1ccc(Cl)cc1	1150
CCNc1cc(C)nc(Nc2ccccc2)n1	880
CC[C@H]1CN2CC[C@H]1C[C@@H]2[C@@H](O)c1ccnc2ccc(OC)cc12	120
Cc1cccc2[nH]c(-c3cccc(-c4cccc(NC(=O)CNC(=O)c5ccc(O)cc5)c4)c3)nc12	990
CCc1cn2c3c(cc(C(=O)N[C@@H](Cc4ccccc4)[C@H](O)CNC(C)(C)c4cccc(OC)c4)cc13)N(C)S(=O)(=O)C2	60
Nc1nccc2ccc(-c3ccnc(NCc4cccnc4)n3)cc12	460
CCc1cn(CCCOC)c2ccc(C(=O)N[C@@H](Cc3ccccc3)[C@H](O)CNCc3cccc(C(F)(F)F)c3)cc12	190
Cc1ccc(C)c2c1[nH]c1ccc(C3=NCCN3)cc12	500
CC(C)(C)OC(=O)N[C@@H](Cc1ccccc1)C(=O)Nc1cccc(-c2cccc(NC(=O)[C@H](Cc3ccccc3)NC(=O)OC(C)(C)C)c2)c1	610
Cc1ccc2c(c1)NC[C@@]21CCN(C[C@@H](O)C2CCN(c3cc(C#N)ccn3)CC2)C[C@@H]1C	610
CCCNC[C@@H](O)[C@H](Cc1ccccc1)NC(=O)c1cc(NCC)cc(N2CCCC2=O)c1	760
COc1ccc(C(=O)N2CCC(CN3CCOC(c4ccccc4)(c4ccccc4)C3)CC2)cc1	170
COCCNC(=O)c1ccc(OC2CCN(Cc3ccc(F)c(F)c3)CC2)c(Cl)c1	1490
CC(=O)c1c[nH]c(C(=O)Nc2ccc(-c3cn4ccccc4n3)cc2)c1	890
CNC(=O)c1cc(S(=O)(=O)N2CCN(c3ccccn3)CC2)cs1	670
Cc1cc(N[C@@H](C)C(=O)Nc2ccccc2)nc(NCCc2ccc(F)cc2)n1	1110
COc1ccc(C2CC(=O)C3=C(C2)NC(C)=C(C(=O)OC2CCCC2)C3c2cccc(O)c2)cc1OC (centres undefined)	220
COc1cccc(-c2cnc(-c3ccncc3)nc2C2CCN(Cc3ccc(NC(C)=O)cc3)CC2)c1	1500
CCN(CC)CCNc1ccnc2ccc3ccccc3c12	220
Clc1ccc(Nc2nc3nonc3nc2Nc2ccc(Cl)c(Cl)c2)cc1	650
CN1CCN(c2ccnc3ccc(NC(=O)Nc4ccc5ccccc5c4)cc23)CC1	80
CC(C)Sc1nc2c(c(=O)n1Cc1ccco1)C1(CCCC1)Cc1ccccc1-2	1630
CC(C)COc1ccc2ccccc2c1CNCCCCCCNCc1c(OCC(C)C)ccc2ccccc12	700

SMILES	IC50 [nM]
c1ccc2c(c1)cc(CNCCCN1CCN(CCCNCc3cc4ccccc4c4ccccc34)CC1)c1ccccc12	200
CCCCCC(C)C(C)c1cc(O)c2c(c1)OC(C)(C)CC2(O)c1ccnn1C (centres undefined)	960
Cc1cccc2[nH]c(-c3ccc(-c4ccc(CN5CCN(CCO)CC5)cc4)s3)nc12	710
O=C(NC1CCN(CCC[C@]2(c3ccc(Cl)c(Cl)c3)CCCN(C(=O)c3ccccc3)C2)CC1)c1ccc(Cl)cc1	900
CCCCc1cc(NCC)nc(Nc2ccc(OC)cc2)n1	1180
Cc1cccc2[nH]c(-c3ccc(-c4ccc(NC(=O)Nc5ccc(Cl)cc5)cc4)cc3)nc12	100
O=C(Nc1cccc(CN2CCCN(Cc3ccc4c(c3)OCO4)CC2)c1)c1cc2ccccc2s1	990
CCN(CC)CCN(Cc1ccc(-c2ccc(C(F)(F)F)cc2)nc1)C(=O)Cn1c(SCc2ccc(F)cc2)nc(=O)c2sccc21	840
CSc1ccccc1NC(=S)NC1CCN(CCCCCNC(=O)/C=C/c2ccc(Cl)c(Cl)c2)CC1	780
Cc1cccc2[nH]c(-c3cccc(-c4ccc(NC(=O)Nc5ccc(F)c(F)c5F)cc4)c3)nc12	170
CC(CNc1ccnc(Nc2ccc3[nH]c(=O)[nH]c3c2)n1)c1ccccc1 (centres undefined)	700
CCCC(C)Nc1nc(C)cc(NCCC(=O)Nc2ccc(OC)cc2)n1 (centres undefined)	1380
N#Cc1cccc(NC(=O)c2cccc(S(=O)(=O)NC3CCN(CC4CCCCC4)C3)c2)c1 (centres undefined)	580
COCCn1c(Sc2ncnc3sccc23)nc2ccccc21	880
Cc1noc(C)c1CN1Cc2ccccc2OC2(CCN(Cc3c[nH]c4cnccc34)CC2)C1	1070
CCc1cn(C)c2c(N3CCCC3=O)cc(C(=O)N[C@@H](Cc3ccccc3)[C@H](O)CNC(C)(C)c3cccc(C(F)(F)F)c3)cc12	110
OCC1CCN(Cc2ccc(-c3cccc(-c4nc5ccc(F)cc5[nH]4)c3)cc2)CC1	910
CC(C)Oc1cc2c(cc1NS(=O)(=O)c1ccc(-c3ccc(Cl)s3)cc1F)CCN(C)CC2	710
CNC(=S)NCc1cnc2ccccn12	200
O=C(Nc1nc(-c2ccccn2)cs1)c1ccc(Br)s1	1060
NC(Cc1cccc(I)c1)C(=O)NCC1CCCO1 (centres undefined)	890
O=C(NCCCc1ccccc1)c1csc(C2CCCN(C(=O)c3ccc(O)c(-c4ccccc4)c3)C2)n1 (centres undefined)	910
COc1c(O)cc2oc(-c3ccc(O)cc3)cc(=O)c2c1O	770
O=C(Nc1ccc(-c2nc3ccccc3[nH]2)cc1)c1cccc(S(=O)(=O)N2CCCC2)c1	740
